These compounds were tested against T1, ERR1 (also known as ERR-α or ERR-1) (Homo sapiens, UniProt P11474) (assay: TR-FRET assay (disruption of co-activator peptide binding to ERR1 LBD)). Details: 6 nM 6His-ERR1LBD, 6 nM GST-SRC-2 peptide; average of 3 independent experiments.
T1 sequence (P11474 193-421 limits assumed): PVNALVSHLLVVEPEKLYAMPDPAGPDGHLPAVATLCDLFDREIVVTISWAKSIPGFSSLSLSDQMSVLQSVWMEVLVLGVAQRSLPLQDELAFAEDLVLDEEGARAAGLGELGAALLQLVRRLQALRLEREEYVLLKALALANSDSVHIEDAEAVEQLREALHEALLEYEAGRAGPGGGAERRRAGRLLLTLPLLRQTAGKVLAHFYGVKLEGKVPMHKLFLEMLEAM
Format: biochemical
Method in brief: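 Homogeneous TR-FRET measuring displacement of GST-hSRC2 co-activator peptide (6 nM) from His-tagged ERR1 LBD (6 nM), detected with α-GST Eu cryptate (30 nM) and α-His-XL665 (7.5 nM). Buffer 25 mM Tris pH 8, 2.5 mM Hepes, 20 mM KCl, 1 mM DTT, 0.05 mg/mL delipidated BSA; equilibration 4-18 h at 25° C. Hyperbolic dose-response fit, mean of 3 experiments.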

EC50 [nM]	SMILES
30	COC(=O)C1(N2C(=O)S/C(=C\c3ccc4c(cnn4Cc4ccc(Cl)cc4C(F)(F)F)c3)C2=O)CCOCC1 [Compound 226, Methyl 4-[(5Z)-5-({1-[4-chloro-2-(trifluoromethyl)benzyl]-1H-indazol-5-yl}methylidene)-2,4-dioxo-1,3-thiazolidin-3-yl]tetrahydro-2H-pyran-4-carboxylate]
700	NC1(CCN2C(=O)S/C(=C\c3ccc4c(cnn4Cc4ccc(C(F)(F)F)cc4C(F)(F)F)c3)C2=O)CCOCC1 [Compound 313, (5Z)-3-[2-(4-Aminotetrahydro-2H-pyran-4-yl)ethyl]-5-({1-[2,4-bis(trifluoromethyl)benzyl]-1H-indazol-5-yl}methylidene)-1,3-thiazolidine-2,4-dione]
50	O=C1OCCC1N1C(=O)S/C(=C\c2ccc3c(cnn3Cc3ccc(C(F)(F)F)cc3C(F)(F)F)c2)C1=O (stereo not shown) [Compound 65, (5Z)-5-({1-[2,4-Bis(trifluoromethyl)benzyl]-1H-indazol-5-yl}methylidene)-3-(2-oxotetrahydrofuran-3-yl)-1,3-thiazolidine-2,4-dione]
185	CCOc1nn(Cc2ccc(Cl)cc2C(F)(F)F)c2ccc(/C=C3\SC(=O)N(CCN4CCCC4)C3=O)cc12 [Compound 33, (5Z)-5-({1-[4-Chloro-2-(trifluoromethyl)benzyl]-3-ethoxy-1H-indazol-5-yl}methylidene)-3-(2-pyrrolidin-1-ylethyl)-1,3-thiazolidine-2,4-dione]
210	[2H]C([2H])([2H])N1CCC(F)(CN2C(=O)S/C(=C\c3ccc4c(cnn4Cc4ccc(Cl)cc4C(F)(F)F)c3)C2=O)CC1 [Compound 307, (5Z)-5-({1-[4-Chloro-2-(trifluoromethyl)benzyl]-1H-indazol-5-yl}methylidene)-3-{[4-fluoro-1-(^2H3)methylpiperidin-4-yl]methyl}-1,3-thiazolidine-2,4-dione]
107	COC(=O)C1(N2C(=O)S/C(=C\c3ccc4c(cnn4Cc4ccc(Cl)cc4C(F)(F)F)c3)C2=O)CCCC1 [Compound 232, Methyl 1-[(5Z)-5-({1-[4-chloro-2-(trifluoromethyl)benzyl]-1H-indazol-5-yl}methylidene)-2,4-dioxo-1,3-thiazolidin-3-yl]cyclopentanecarboxylate]
7	O=C(NN1C(=O)S/C(=C\c2ccc3c(cnn3Cc3ccc(Cl)cc3C(F)(F)F)c2)C1=O)C1CC1 [Compound 373, N-[(5Z)-5-({1-[4-Chloro-2-(trifluoromethyl)benzyl]-1H-indazol-5-yl}methylidene)-2,4-dioxo-1,3-thiazolidin-3-yl]cyclopropanecarboxamide]
62	COc1ccc(Cn2ncc3cc(/C=C4\SC(=O)N(CCN5CCC(O)CC5)C4=O)ccc32)c(C(F)(F)F)c1 [Compound 15, (5Z)-3-[2-(4-Hydroxypiperidin-1-yl)ethyl]-5-({1-[4-methoxy-2-(trifluoromethyl)benzyl]-1H-indazol-5-yl}methylidene)-1,3-thiazolidine-2,4-dione]
650	NS(=O)(=O)NC(=O)CN1C(=O)S/C(=C\c2ccc3c(cnn3Cc3ccc(C(F)(F)F)cc3C(F)(F)F)c2)C1=O [Compound 87, 2-[(5Z)-5-({1-[2,4-Bis(trifluoromethyl)benzyl]-1H-indazol-5-yl}methylidene)-2,4-dioxo-1,3-thiazolidin-3-yl]-N-sulfamoylacetamide]
38	O=C(O)[C@@H]1CCC[C@H]1N1C(=O)S/C(=C\c2ccc3c(cnn3Cc3ccc(Cl)cc3C(F)(F)F)c2)C1=O [Compound 142, (1R,2R)-2-[(5Z)-5-({1-[4-Chloro-2-(trifluoromethyl)benzyl]-1H-indazol-5-yl}methylidene)-2,4-dioxo-1,3-thiazolidin-3-yl]cyclopentanecarboxylic acid]
70	O=C(CN1C(=O)S/C(=C\c2ccc3c(c2)c(Cl)nn3Cc2ccc(Cl)cc2C(F)(F)F)C1=O)NS(=O)(=O)N1CCCC1 [Compound 375, 2-[(5Z)-5-({3-Chloro-1-[4-chloro-2-(trifluoromethyl)benzyl]-1H-indazol-5-yl}methylidene)-2,4-dioxo-1,3-thiazolidin-3-yl]-N-(pyrrolidin-1-ylsulfonyl)acetamide]
23	Cc1nn(Cc2ccc(Cl)cc2C(F)(F)F)c2ccc(/C=C3\SC(=O)N(NS(C)(=O)=O)C3=O)cc12 [Compound 365, N-[(5Z)-5-({1-[4-Chloro-2-(trifluoromethyl)benzyl]-3-methyl-1H-indazol-5-yl}methylidene)-2,4-dioxo-1,3-thiazolidin-3-yl]methanesulfonamide]
16	O=C1S/C(=C\c2ccc3c(cnn3Cc3ccc(Cl)cc3C(F)(F)F)c2)C(=O)N1C1CCNCC1 [Compound 113, (5Z)-5-({1-[4-Chloro-2-(trifluoromethyl)benzyl]-1H-indazol-5-yl}methylidene)-3-piperidin-4-yl-1,3-thiazolidine-2,4-dione]
16	O=C1S/C(=C\c2ccc3c(c2)nnn3Cc2ccc(Cl)cc2C(F)(F)F)C(=O)N1Cc1nc[nH]n1 [Compound 264, (5Z)-5-({1-[4-Chloro-2-(trifluoromethyl)benzyl]-1H-benzotriazol-5-yl}methylidene)-3-(1H-1,2,4-triazol-3-ylmethyl)-1,3-thiazolidine-2,4-dione]
47	O=C1S/C(=C\c2ccc3c(cnn3Cc3ccc(Cl)cc3C(F)(F)F)c2)C(=O)N1[C@@H]1CCOC1 [Compound 125, (5Z)-5-({1-[4-Chloro-2-(trifluoromethyl)benzyl]-1H-indazol-5-yl}methylidene)-3-[(3R)-tetrahydrofuran-3-yl]-1,3-thiazolidine-2,4-dione]
100	CN(C)CCCN1C(=O)S/C(=C\c2ccc3c(ccn3Cc3ccc(F)cc3C(F)(F)F)c2)C1=O [Compound 252, (5Z)-3-[3-(Dimethylamino)propyl]-5-[(1-{[4-fluoro-2-(trifluoromethyl)phenyl]methyl}-1H-indol-5-yl)methylidene]-1,3-thiazolidine-2,4-dione]
37	CC(C)C[C@@H](N)CN1C(=O)S/C(=C\c2ccc3c(cnn3Cc3ccc(Cl)cc3C(F)(F)F)c2)C1=O [Compound 54, (5Z)-3-[(2R)-2-Amino-4-methylpentyl]-5-({1-[4-chloro-2-(trifluoromethyl)benzyl]-1H-indazol-5-yl}methylidene)-1,3-thiazolidine-2,4-dione]
7	O=C(O)CN1C(=O)S/C(=C\c2ccc3c(c2)c(Br)nn3Cc2ccc(Cl)cc2C(F)(F)F)C1=O [Compound 407, [(5Z)-5-({3-Bromo-1-[4-chloro-2-(trifluoromethyl)benzyl]-1H-indazol-5-yl}methylidene)-2,4-dioxo-1,3-thiazolidin-3-yl]acetic acid]
124	CCOC(=O)C1CCC(N2C(=O)S/C(=C\c3ccc4c(c3)nnn4Cc3ccc(Cl)cc3C(F)(F)F)C2=O)CC1 (stereo not shown) [Compound 261, Ethyl 4-[(5Z)-5-({1-[4-chloro-2-(trifluoromethyl)benzyl]-1H-benzotriazol-5-yl}methylidene)-2,4-dioxo-1,3-thiazolidin-3-yl]cyclohexanecarboxylate]
14	O=C1S/C(=C\c2ccc3c(cnn3Cc3ccc(C(F)(F)F)cc3C(F)(F)F)c2)C(=O)N1[C@@H]1CNCC[C@@H]1F (relative stereo) [Compound 200, (5Z)-5-({1-[2,4-Bis(trifluoromethyl)benzyl]-1H-indazol-5-yl}methylidene)-3-(cis-4-fluoropiperidin-3-yl)-1,3-thiazolidine-2,4-dione]
5	NC1(CN2C(=O)S/C(=C\c3ccc4c(cnn4Cc4ccc(Cl)cc4C(F)(F)F)c3)C2=O)CCOCC1 [Compound 308, (5Z)-3-[(4-Aminotetrahydro-2H-pyran-4-yl)methyl]-5-({1-[4-chloro-2-(trifluoromethyl)benzyl]-1H-indazol-5-yl}methylidene)-1,3-thiazolidine-2,4-dione]
88	O=C1S/C(=C\c2ccc3c(cnn3Cc3ccc(Cl)cc3C(F)(F)F)c2)C(=O)N1C1(C(=O)O)CCCCC1 [Compound 218, 1-[(5Z)-5-({1-[4-Chloro-2-(trifluoromethyl)benzyl]-1H-indazol-5-yl}methylidene)-2,4-dioxo-1,3-thiazolidin-3-yl]cyclohexanecarboxylic acid]

SMILES	EC50 [nM]
COC(=O)[C@@H](COC(C)(C)C)N1C(=O)S/C(=C\c2ccc3c(cnn3Cc3ccc(Cl)cc3C(F)(F)F)c2)C1=O [Compound 212, Methyl (2R)-3-tert-butoxy-2-[(5Z)-5-({1-[4-chloro-2-(trifluoromethyl)benzyl]-1H-indazol-5-yl}methylidene)-2,4-dioxo-1,3-thiazolidin-3-yl]propanoate]	250
O=C1S/C(=C\c2ccc3c(cnn3Cc3ccc(Cl)cc3C(F)(F)F)c2)C(=O)N1[C@@H]1CN2CCC1CC2 [Compound 132, (5Z)-3-[(3S)-1-Azabicyclo[2.2.2]oct-3-yl]-5-({1-[4-chloro-2-(trifluoromethyl)benzyl]-1H-indazol-5-yl}methylidene)-1,3-thiazolidine-2,4-dione]	18
O=C1S/C(=C\c2ccc3c(cnn3Cc3ccc(Cl)cc3C(F)(F)F)c2)C(=O)N1Cc1cc(O)no1 [Compound 138, (5Z)-5-({1-[4-Chloro-2-(trifluoromethyl)benzyl]-1H-indazol-5-yl}methylidene)-3-[(3-hydroxyisoxazol-5-yl)methyl]-1,3-thiazolidine-2,4-dione]	42

Source: patent publication US8796256B2 (Janssen Pharmaceutica NV, priority 2010, dated 2014)
